Source: patent US20060241177A1, “Novel compounds, pharmaceutical compositions containing same, and methods of use for same” (priority 2002, published 2006)
≈ marks a conversion by molar mass, not a printed value. Like-named read-outs stand apart in the source and are kept apart here.

Columns and labels:
Assay type in all cases: cell-based
[1] = test system: MCF-7 human breast cancer cells; test: [14C]acetate incorporation into total lipids (fatty acid synthesis in whole cells); settings: for IC50: Homo sapiens, MCF7, MCF-7 cells; for 14C (IC50): MCF-7 cells
Description: Measurement of [^14C]Acetate Incorporation into Total Lipids and Determination of IC50 of Compounds
This assay measures the incorporation of [^14C] acetate into total lipids and is a measure of fatty acid synthesis pathway activity in vitro. It is utilized to measure inhibition of fatty acid synthesis in vitro.
MCF-7 human breast cancer cells cultured as above, are plated at 5×10^4 cells per well in 24-well plates. Following overnight incubation, the compounds to be tested, solubilized in DMSO, are added at 5, 10, and 20 μg/ml in triplicate, with lower concentrations tested if necessary. DMSO is added to triplicate wells for a vehicle control. C75 is run at 5 and 10 μg/ml in triplicate as positive controls. After 4 hours of incubation, 0.25 μCi of [^14C]acetate (10 μl volume) is added to each well.
After 2 hours of additional incubation, medium is aspirated from the wells and 800 μl of chloroform:methanol (2:1) and 700 μl of 4 mM MgCl2 is added to each well. Contents of each well are transferred to 1.5 ml Eppendorf tubes, and spun at full-speed for 2 minutes in a high-speed Eppendorf Microcentrifuge 5415D. After removal of the aqueous (upper) layer, an additional 700 μl of chloroform:methanol (2:1) and 500 μl of 4 mM MgCl2 are added to each tube and then centrifuged for 1 minutes as above. The aqueous layer is removed with a Pasteur pipette and discarded. An additional 400 μl of chloroform:methanol (2:1) and 200 μl of 4 mM MgCl2 are added to each tube, then centrifuged and aqueous layer is discarded. The lower (organic) phase is transferred into a scintillation vial and dried at 40° C. under N2 gas. Once dried, 3 ml of scintillant (APB #NBC5104) is added and vials are counted for ^14C. The Beckman Scintillation counter calculates the average cpm values for triplicates.
The IC50 for the compounds is defined as the concentration of drug leading to a 50% reduction in [^14C] acetate incorporation into lipids compared to controls. This is determined by plotting the average cpm for each inhibitor concentration tested, performing linear regression and computing the best-fit line, r^2 values, and 95% confidence intervals. The average cpm values are computed by the Beckman scintillation counter (model LS6500) for each compound concentration. Computation of linear regression, best-fit line, r^2, and 95% confidence intervals are calculated using Prism Version 3.0 (Graph Pad Software).

[2] = test system: MCF-7 human breast cancer cells; test: Crystal violet cell growth assay; settings: MCF7, MCF-7 cells, 72 hours, read-out: Cr. Violet (IC50)
Description: Crystal Violet Cell Growth Assay
The crystal violet assay measures cell growth but not cytotoxicity. This assay employs crystal violet staining of fixed cells in 96-well plates with subsequent solubilization and measurement of OD490 on a spectrophotometer. The OD490 corresponds to cell growth per unit time measured. Cells are treated with the compounds of interest or vehicle controls and IC50 for each compound is computed.
To measure the cytotoxicity of specific compounds against cancer cells, 5×10^4 MCF-7 human breast cancer cells, obtained from the American Type Culture Collection are plated per well in 24 well plates in DMEM medium with 10% fetal bovine serum, penicillin, and streptomycin. Following overnight culture at 37° C. and 5% CO2, the compounds to be tested, dissolved in DMSO, are added to the wells in 1 μl volume at the following concentrations: 50, 40, 30, 20, and 10 μg/ml in triplicate. Additional concentrations are tested if required. 1 μl of DMSO is added to triplicate wells as the vehicle control. C75 is run at 10, and 5 μg/ml in triplicate as positive controls.
After 72 hours of incubation, cells are stained with 0.5 ml of Crystal Violet stain (0.5% in 25% methanol) in each well. After 10 minutes, wells are rinsed, air dried, and then solubilized with 0.5 ml 10% sodium dodecylsulfate with shaking for 2 hours. Following transfer of 100 μl from each well to a 96-well plate, plates are read at OD490 on a Molecular Devices SpectraMax Plus Spectrophotometer Average OD490 values are computed using SOFTmax Pro Software (Molecular Devices) and IC50 values are determined by linear regression analysis using Prism version 3.02 (Graph Pad Software, San Diego).

[3] = test system: Enterococcus faecalis (ATCC #29212); test: Broth microdilution MIC; settings: 24 hours; for MIC: Enterococcus faecalis, ATCC29212
Description: (§1) A broth microdilution assay is used to assess the antimicrobial activity of the compounds. Compounds are tested at twofold serial dilutions, and the concentration that inhibits visible growth (OD600 at 10% of control) is defined as the MIC. Microorganisms tested include Staphylococcus aureus (ATCC #29213), Enterococcus faecalis (ATCC #29212), Pseudomonas aeruginosa (ATCC #27853), and Escherichia coli (ATCC #25922). The assay is performed in two growth media, Mueller Hinton Broth and Trypticase Soy Broth.
(§2) A blood (Tsoy/5% sheep blood) agar plate is inoculated from frozen stocks maintained in T soy broth containing 10% glycerol and incubated overnight at 37° C. Colonies are suspended in sterile broth so that the turbidity matches the turbidity of a 0.5 McFarland standard. The inoculum is diluted 1:10 in sterile broth (Mueller Hinton or Trypticase soy) and 195 ul is dispensed per well of a 96-well plate. The compounds to be tested, dissolved in DMSO, are added to the wells in 5 ul volume at the following concentrations: 25, 12.5, 6.25, 3.125, 1.56 and 0.78 ug/ml in duplicate. Additional concentrations are tested if required. 5 ul of DMSO added to duplicate wells are the vehicle control. Serial dilutions of positive control compounds, vancomycin (E. faecalis and S. aureus) and tobramycin (E. coli and P. aeruginosa), are included in each rum
(§3) After 24 hours of incubation at 37° C., plates are read at OD600 on a Molecular Devices SpectraMax Plus Spectrophotometer. Average OD600 values are computed using SOFTmax Pro Software (Molecular Devices) and MIC values are determined by linear regression analysis using Prism version 3.02 (Graph Pad Software, San Diego). The MIC is defined as the concentration of compound required to produce an OD600 reading equivalent to 10% of the vehicle control reading.

[4] = test system: Pseudomonas aeruginosa (ATCC #27853); test: Broth microdilution MIC; settings: 24 hours; for MIC: Pseudomonas aeruginosa, ATCC27853
Description: as §1, §2, §3

[5] = test system: Escherichia coli (ATCC #25922); test: Broth microdilution MIC; settings: 24 hours; for MIC: Escherichia coli, ATCC25922
Description: as §1, §2, §3

[6] = test system: Staphylococcus aureus (ATCC #29213); test: Broth microdilution MIC; settings: 24 hours; for MIC: Staphylococcus aureus, ATCC29213
Description: as §1, §2, §3

[7] = Mueller Hinton Broth, read-out: EF/MH (MIC)
[8] = Trypticase Soy Broth, read-out: EF/Tsoy (MIC)
[9] = Mueller Hinton Broth, read-out: SA/MH (MIC)
[10] = Trypticase Soy Broth, read-out: SA/Tsoy (MIC)
[11] = Mueller Hinton Broth, read-out: PSAE/MH (MIC)
[12] = Trypticase Soy Broth, read-out: PSAE/Tsoy (MIC)
[13] = Trypticase Soy Broth, read-out: Ecoli/Tsoy (MIC)

Structure (SMILES) | IC50 [1] [µg/mL] | IC50 [2] [µg/mL] | 14C (IC50) [1] | MIC [3, 7] [µg/mL] | MIC [3, 8] [µg/mL] | PSAE/MH (MIC) ([4]; Mueller Hinton Broth) | PSAE/Tsoy (MIC) ([4]; Trypticase Soy Broth) | Ecoli/MH (MIC) ([5]; Mueller Hinton Broth) | Ecoli/Tsoy (MIC) ([5]; Trypticase Soy Broth) | MIC [6, 9] [µg/mL] | MIC [6, 10] [µg/mL] | MIC [4, 11] [µg/mL] | MIC [4, 12] [µg/mL] | MIC [5, 13] [µg/mL] | MIC ([5]; Mueller Hinton Broth, read-out: Ecoli/MH (MIC)) [µg/mL] | SA/Tsoy (MIC) ([6]; Trypticase Soy Broth) | EF/Tsoy (MIC) ([3]; Trypticase Soy Broth) | EF/MH (MIC) ([3]; Mueller Hinton Broth)
CCCCCCCCC1OC(=O)[C@@H](C)[C@H]1C(=O)O (stereo partly drawn) | 31 (≈ 121 µM) | > 50 |  |  |  |  |  |  |  |  |  |  |  |  |  |  |  | 
CCCCCCCCC1OC(=O)[C@H](C)[C@H]1C(=O)O (stereo partly drawn) |  | 49 (≈ 191 µM) | Neg | 109 (≈ 425 µM) | 94 (≈ 367 µM) | Neg | Neg | Neg | Neg | 43 (≈ 168 µM) | 60 (≈ 234 µM) |  |  |  |  |  |  | 
C=CCNC(=O)C1=C(C)C(=O)O[C@H]1CCCCCCCC |  | 23.7 (≈ 80.8 µM) | Neg (stim) | 115 (≈ 392 µM) | 203 (≈ 692 µM) |  |  | Neg |  | 79 (≈ 269 µM) | 87 (≈ 297 µM) | 280 (≈ 954 µM) | 137 (≈ 467 µM) | 199 (≈ 678 µM) |  |  |  | 
C=CCNC(=O)[C@@H]1C(=C)C(=O)O[C@H]1CCCCCCCC (racemic) | 0.75 ± 0.4 (≈ 2.56 µM) | 0.9 ± 0.5 (≈ 3.07 µM) |  | 36 (≈ 123 µM) | 25 (≈ 85.2 µM) | Neg | Neg |  |  | 9.1 ± 1.9 (≈ 31 µM) | 12 ± 0.5 (≈ 40.9 µM) |  |  |  |  |  |  | 
C=CCNC(=O)[C@H]1[C@H](CCCCCCCC)OC(=O)[C@H]1C (racemic) | 25.7 (≈ 87 µM) | 43.9 ± 4.8 (≈ 149 µM) |  | 91 (≈ 308 µM) | 114 (≈ 386 µM) | Neg | Neg |  | Neg | 107 (≈ 362 µM) |  |  |  |  | 108 (≈ 366 µM) | Neg |  | 
C=CCNC(=O)[C@H]1[C@H](CCCCCCCC)OC(=O)[C@@H]1C (racemic) |  | 30 (≈ 102 µM) | Neg | 84 (≈ 284 µM) |  |  |  | Neg |  | 80 (≈ 271 µM) | 193 (≈ 653 µM) | 218 (≈ 738 µM) | 160 (≈ 542 µM) | 155 (≈ 525 µM) |  |  | Neg | 
C=CCNC(=O)[C@@H]1C(=C)C(=O)O[C@H]1CCCCCC (racemic) | 3.3 (≈ 12.4 µM) | 0.85 ± 0.08 (≈ 3.2 µM) |  | 103 (≈ 388 µM) | 38 (≈ 143 µM) | Neg | Neg | Neg | Neg | 49 (≈ 185 µM) | 47 (≈ 177 µM) |  |  |  |  |  |  | 
C=CCNC(=O)[C@@H]1C(=C)C(=O)O[C@H]1CCCC (racemic) | 1.8 ± 0.3 (≈ 7.59 µM) | 2.2 ± 0.3 (≈ 9.27 µM) |  | 190 (≈ 801 µM) | 67 (≈ 282 µM) | Neg | Neg | Neg | Neg | 65 (≈ 274 µM) | 96 (≈ 405 µM) |  |  |  |  |  |  | 
C=C1C(=O)O[C@@H](CCCCCCCC)[C@@H]1C(=O)NCCO (racemic) | 2.3 ± 1.3 (≈ 7.73 µM) | 2.2 ± 1 (≈ 7.4 µM) |  |  | 77 (≈ 259 µM) | Neg | Neg | Neg | Neg | 44 (≈ 148 µM) | 48 (≈ 161 µM) |  |  |  |  |  |  | Neg
C=C1C(=O)O[C@@H](CCCCCCCC)[C@@H]1C(=O)NCC(=O)OC (racemic) | 1.1 ± 0.03 (≈ 3.38 µM) | 1.3 ± 0.09 (≈ 4 µM) |  | 80 (≈ 246 µM) | 245 (≈ 753 µM) | Neg | Neg | Neg |  | 4.3 (≈ 13.2 µM) | 26 (≈ 79.9 µM) |  |  | 275 (≈ 845 µM) |  |  |  | 
C=C1C(=O)O[C@@H](CCCCCCCC)[C@@H]1C(=O)NCC(=O)O (racemic) |  | > 50 |  | 219 (≈ 703 µM) | 215 (≈ 690 µM) | Neg | Neg | Neg |  | 72 (≈ 231 µM) | 52 (≈ 167 µM) |  |  | 235 (≈ 755 µM) |  |  |  | 
